Target: T1, SARM1 (50-724) (Homo sapiens, UniProt Q6SZW1)
T1 construct: Purified SARM1 (50-724) with a final concentration of 2 nM was pre-incubated with a test compound
T1 sequence (Q6SZW1 50-724): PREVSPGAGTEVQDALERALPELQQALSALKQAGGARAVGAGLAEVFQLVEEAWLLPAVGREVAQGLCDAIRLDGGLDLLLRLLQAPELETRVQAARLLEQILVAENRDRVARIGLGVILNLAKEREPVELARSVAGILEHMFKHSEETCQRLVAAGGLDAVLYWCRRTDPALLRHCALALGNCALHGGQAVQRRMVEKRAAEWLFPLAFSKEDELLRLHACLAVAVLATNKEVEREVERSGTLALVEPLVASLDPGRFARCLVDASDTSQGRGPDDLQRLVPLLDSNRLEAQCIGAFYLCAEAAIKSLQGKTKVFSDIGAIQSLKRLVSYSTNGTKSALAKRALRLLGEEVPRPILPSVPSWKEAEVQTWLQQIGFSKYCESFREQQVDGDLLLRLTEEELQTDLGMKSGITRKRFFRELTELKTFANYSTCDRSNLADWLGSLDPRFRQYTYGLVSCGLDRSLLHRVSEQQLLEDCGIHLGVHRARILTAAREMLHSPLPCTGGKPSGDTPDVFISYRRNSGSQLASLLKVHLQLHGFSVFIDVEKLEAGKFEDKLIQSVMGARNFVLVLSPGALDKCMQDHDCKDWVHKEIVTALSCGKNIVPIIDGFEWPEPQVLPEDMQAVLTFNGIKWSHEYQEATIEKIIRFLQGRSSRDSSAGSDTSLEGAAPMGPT
Test: SARM1 (50-724) enzymatic assay (LC-MS/MS)
Type: biochemical
Settings: Purified SARM1 (50-724) 2 nM, NMN as activator, NAD+ as substrate, 1 h at room temperature, read-out: IC50 (SARM1 inhibitory activity)
In short: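 Reaction buffer was Dulbecco's PBS. Compound and 2 nM human SARM1 (50-724) were pre-incubated 15 min at room temperature, then […] NAD^+ and 200 µM NMN activator were added for 1 h at room temperature. Acetonitrile (70%) stop, LC-MS/MS read-out, IC50 values.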

SMILES | IC50 [µM]
Cn1cc(OC(F)(F)F)c(-n2cnnc2-c2nc3cc(C4CC4)cc(F)c3[nH]2)cc1=O [Compound 353, 4-(3-(5-cyclopropyl-7-fluoro-1H-benzo[d]imidazol-2-yl)-4H-1,2,4-triazol-4-yl)-1-methyl-5-(trifluoromethoxy)pyridin-2(1H)-one] | ≤ 0.1
Cn1cc(OC(F)(F)F)c(-n2cnnc2-c2nc3c(F)c(C4CC4)ccc3[nH]2)cc1=O [Compound 354, 4-(3-(5-cyclopropyl-4-fluoro-1H-benzo[d]imidazol-2-yl)-4H-1,2,4-triazol-4-yl)-1-methyl-5-(trifluoromethoxy)pyridin-2(1H)-one] | ≤ 0.1
CC(Oc1cc(F)c2[nH]c(-c3nncn3-c3cnccc3C(F)(F)F)nc2c1)C(F)(F)F (centres unmarked) [Compound 355, 7-fluoro-2-(4-(4-(trifluoromethyl)pyridin-3-yl)-4H-1,2,4-triazol-3-yl)-5-((1,1,1-trifluoropropan-2-yl)oxy)-1H-benzo[d]imidazole] | ≤ 0.1
FC(F)(F)c1cnc2[nH]c(-c3nncn3-c3cnccc3C(F)(F)F)cc2n1 [Compound 356, 2-(trifluoromethyl)-6-(4-(4-(trifluoromethyl)pyridin-3-yl)-4H-1,2,4-triazol-3-yl)-5H-pyrrolo[2,3-b]pyrazine] | ≤ 0.1
FC(F)(F)c1ccncc1-n1cnnc1-c1nc2c(N3CC4(COC4)C3)c(Cl)ccc2[nH]1 [Compound 357, 6-(5-chloro-2-(4-(4-(trifluoromethyl)pyridin-3-yl)-4H-1,2,4-triazol-3-yl)-1H-benzo[d]imidazol-4-yl)-2-oxa-6-azaspiro[3.3]heptane] | > 1
FC1(F)CN(c2c(Cl)ccc3[nH]c(-c4nncn4-c4cnccc4C(F)(F)F)nc23)C1 [Compound 358, 5-chloro-4-(3,3-difluoroazetidin-1-yl)-2-(4-(4-(trifluoromethyl)pyridin-3-yl)-4H-1,2,4-triazol-3-yl)-1H-benzo[d]imidazole] | 0.1 to 0.5
[2H]c1nnc(-c2nc3cc(C4([2H])CC4)cc(F)c3[nH]2)n1-c1cnccc1C(F)(F)F [Compound 359, 5-(cyclopropyl-1-d)-7-fluoro-2-(4-(4-(trifluoromethyl)pyridin-3-yl)-4H-1,2,4-triazol-3-yl-5-d)-1H-benzo[d]imidazole] | ≤ 0.1
Fc1cc(C2CC23CCOCC3)cc2nc(-c3nncn3-c3cnccc3C(F)(F)F)[nH]c12 (centres unmarked) [Compound 360, 7-fluoro-5-(6-oxaspiro[2.5]octan-2-yl)-2-[4-[4-(trifluoromethyl)-3-pyridyl]-1,2,4-triazol-3-yl]-1H-benzimidazole] | ≤ 0.1
FC(F)(F)c1ccc2[nH]c(C3CSCCN3c3ccccc3)nc2c1 (centres unmarked) [Compound 361, 4-phenyl-3-[5-(trifluoromethyl)-1H-benzimidazol-2-yl]thiomorpholine] | > 1
FC(F)(F)c1ccncc1-n1cnnc1-c1nc2cc(C34COC(C3)C4)ccc2[nH]1 [Compound 362, 5-(2-oxabicyclo[2.1.1]hexan-4-yl)-2-[4-[4-(trifluoromethyl)-3-pyridyl]-1,2,4-triazol-3-yl]-1H-benzimidazole] | 0.1 to 0.5
FC(F)(F)c1ccc2[nH]c(C3COCCN3c3cccc(Cl)c3Cl)nc2c1 (centres unmarked) [Compound 363, 4-(2,3-dichlorophenyl)-3-[5-(trifluoromethyl)-1H-benzimidazol-2-yl]morpholine] | 0.5 to 1
FC(F)(F)c1ccncc1-n1cnnc1-c1nc2cc(C3CCCC3)ccc2[nH]1 [Compound 364, 5-cyclopentyl-2-(4-(4-(trifluoromethyl)pyridin-3-yl)-4H-1,2,4-triazol-3-yl)-1H-benzo[d]imidazole] | ≤ 0.1
CC(CN(C)C)c1ccc2[nH]c(-c3nncn3-c3cnccc3C(F)(F)F)nc2c1 (centres unmarked) [Compound 365] | > 1
FC(F)(F)c1ccc2[nH]c(-c3nncn3-c3cnccc3C(F)(F)F)c(C3CC3)c2c1 [Compound 366, 3-cyclopropyl-5-(trifluoromethyl)-2-(4-(4-(trifluoromethyl)pyridin-3-yl)-4H-1,2,4-triazol-3-yl)-1H-indole] | ≤ 0.1
O=C1CCCN1c1c(-c2nncn2-c2cnccc2C(F)(F)F)[nH]c2ccc(C(F)(F)F)cc12 [Compound 367, 1-(5-(trifluoromethyl)-2-(4-(4-(trifluoromethyl)pyridin-3-yl)-4H-1,2,4-triazol-3-yl)-1H-indol-3-yl)pyrrolidin-2-one] | > 1
O=C1CN(c2nc3cc(C(F)(F)F)ccc3[nH]2)C(c2ccccc2)CN1 (centres unmarked) [Compound 368, 5-phenyl-4-(5-(trifluoromethyl)-1H-benzo[d]imidazol-2-yl)piperazin-2-one] | > 1
O=C1CN(c2ccccc2)C(c2nc3cc(C(F)(F)F)ccc3[nH]2)CN1 (centres unmarked) [Compound 369, 4-phenyl-5-(5-(trifluoromethyl)-1H-benzo[d]imidazol-2-yl)piperazin-2-one] | > 1
COCCOc1c(Cl)ccc2[nH]c(-c3nncn3-c3cnccc3C(F)(F)F)nc12 [Compound 371, 5-chloro-4-(2-methoxyethoxy)-2-(4-(4-(trifluoromethyl)pyridin-3-yl)-4H-1,2,4-triazol-3-yl)-1H-benzo[d]imidazole] | 0.1 to 0.5
[2H]c1cncc(-n2c([2H])nnc2-c2nc3c(F)c(C4([2H])CC4)ccc3[nH]2)c1C(F)(F)F [Compound 372, 5-(cyclopropyl-1-d)-4-fluoro-2-(4-(4-(trifluoromethyl)pyridin-3-yl-5-d)-4H-1,2,4-triazol-3-yl-5-d)-1H-benzo[d]imidazole] | ≤ 0.1
Fc1cc(C23COCC2C3)cc2nc(-c3nncn3-c3cnccc3C(F)(F)F)[nH]c12 (centres unmarked) [Compound 374] | ≤ 0.1
FC(F)(F)c1ccc2[nH]c(-c3nncn3-c3cnccc3C(F)(F)F)c(C3CCNC3)c2c1 (centres unmarked) [Compound 375, 3-(pyrrolidin-3-yl)-5-(trifluoromethyl)-2-(4-(4-(trifluoromethyl)pyridin-3-yl)-4H-1,2,4-triazol-3-yl)-1H-indole] | 0.1 to 0.5
FC(F)(F)c1ccc2[nH]c(-c3nncn3-c3cnccc3C(F)(F)F)c(-c3ccco3)c2c1 [Compound 376, 3-(2-furyl)-5-(trifluoromethyl)-2-[4-[4-(trifluoromethyl)-3-pyridyl]-1,2,4-triazol-3-yl]-1H-indole] | ≤ 0.1
Cc1cc(-c2cnccc2C(F)(F)F)c(-c2nc3cc(C(F)(F)F)ccc3[nH]2)nn1 [Compound 377, 2-(6-Methyl-4-(4-(trifluoromethyl)pyridin-3-yl)pyridazin-3-yl)-5-(trifluoromethyl)-1H-benzo[d]imidazole] | 0.1 to 0.5
FC(F)(F)c1ncc2[nH]c(-c3nncn3-c3cnccc3C(F)(F)F)cc2n1 [Compound 378, 2-(trifluoromethyl)-6-(4-(4-(trifluoromethyl)pyridin-3-yl)-4H-1,2,4-triazol-3-yl)-5H-pyrrolo[3,2-d]pyrimidine] | > 1
CS(=O)(=O)Cc1nnc(-c2cc3cc(C(F)(F)F)ccc3[nH]2)n1-c1cnccc1C(F)(F)F [Compound 380, 2-(5-((methylsulfonyl)methyl)-4-(4-(trifluoromethyl)pyridin-3-yl)-4H-1,2,4-triazol-3-yl)-5-(trifluoromethyl)-1H-indole] | ≤ 0.1
Fc1cccc(-n2c(Cn3cccn3)nnc2-c2nc3cc(C(F)(F)F)ccc3[nH]2)c1Cl [Compound 381, 2-(5-((1H-pyrazol-1-yl)methyl)-4-(2-chloro-3-fluorophenyl)-4H-1,2,4-triazol-3-yl)-5-(trifluoromethyl)-1H-benzo[d]imidazole] | 0.1 to 0.5

From patent publication US20260258064A1 (SIRONAX LTD., priority 2023, published 2026)
